Experimental data published in patent publication US20090291964A1, “Potentiators of Antibacterial Activity” (priority 2003, published 2009).
Where two headings read alike, the source gives them in different places.

How the values were obtained:
Type in all cases: cell-based
[1] = system: S. aureus SA-K2068 (non-NorA multidrug efflux pump overproducing); experiment: microbe, parasite or virus in culture; settings: Staphylococcus aureus
Text: (§1) A variety of strains may be used in these experiments, including, but not limited to, S. aureus ATCC 29213, E. faecalis ATCC 29212, and S. pneumoniae, S. aureus strains SA-1199, SA-1199B, SA-8325-4, and SA-K2068. S. aureus ATCC 29213, E. faecalis ATCC 29212, and S. pneumoniae ATCC 10015 were obtained from the American Type Culture Collection (Manassas, Va.). S. aureus strains SA-1199 (clinical isolate, susceptible), SA-1199B (SA-1199, NorA overproducing, also has A116E GrlA mutation), SA-8325-4 (NCTC 8325 cured of prophages), SA-K2068 (SA-8325-4, non-NorA multidrug efflux pump overproducing mutation) were obtained from Glenn Kaatz (Kaatz et al., “Identification and characterization of a novel efflux-related multidrug resistance phenotype in Staphylococcus aureus”, J. Antimicrob. Chemother. 50:833-838 (2002); 1993; Kaatz et al., “Phenothiazines and thioxanthenes inhibit multidrug efflux pump activity in Staphylococcus aureus”, Antimicrob. Agents Chemother. 47:719-726, Kaatz et al., “Efflux-mediated fluoroquinolone resistance in Staphylococcus aureus. Antimicrob. Agents Chemother.”, 37:1086-1094, 1993)).
(§2) 3% sterile laked horse blood (Quad Five, Ryegate, Mont.) was added to assays for E. faecalis and S. Pneumoniae. A final concentration of 1% DMSO was present in all assays.
(§3) Recent more hydrophobic fluoroquinolones such as gatifloxacin and moxifloxacin are less well recognized by NorA; however, recently one other pump in S. aureus has been described which also recognizes hydrophobic fluoroquinolones (Kaatz et al. 2002, supra). To investigate the potential of A-106 and C-9 to block the efflux of several fluoroquinolones in cells with constituitively over-expressed efflux pumps, we used S. aureus strains SA-1199B and K2068 (Table 3). […] Kaatz et al., “Phenothiazines and thioxanthenes inhibit multidrug efflux pump activity in Staphylococcus aureus”, Antimicrob. Agents Chemother. 47:719-726 (2003).

[2] = system: S. aureus SA-1199 (clinical isolate, susceptible); experiment: MIC of fluoroquinolones with and without EPI; settings: Staphylococcus aureus, read-out: MIC of antibacterial agent, EPI none
Text: as §1, §2

S. aureus SA-8325-4 = experiment: MIC of fluoroquinolones with and without EPI; settings: Staphylococcus aureus, SA83254, read-out: MIC of antibacterial agent, EPI none
Text: as §1, §2

[3] = system: E. faecalis clinical isolates; experiment: MIC90 studies: fluoroquinolone susceptibility of clinical isolate panel with EPI; settings: Enterococcus faecalis, read-out: MIC, No EPI
Procedure: (§4) Susceptibility studies with large panels of resistant clinical isolates were performed at Focus Technologies, Herndon, Va. according to NCCLS protocols (National Committee for Clinical Laboratory Standards, supra).
(§5) To be useful in combination therapy, an EPI needs to substantially reduce the MIC of an antibiotic to within the range of clinical susceptibility. Because many different resistance mechanisms are often present in clinical isolates, including the likelihood of multiple target-based mutations in addition to efflux mutations, the barrier to antibiotic efficacy is much greater. […] Oxacillin and vancomycin MICs were also determined to identify which isolates were methicillin-resistant (S. aureus) and vancomycin-resistant (E. faecalis).

[4] = system: S. aureus clinical isolates; experiment: as above; settings: Staphylococcus aureus
Procedure: as §4, §5

S. aureus ATCC 29213 [5] = experiment: MIC by NCCLS microdilution, antibacterial agents with and without EPI; settings: for MIC: Staphylococcus aureus; for MIC in the presence of 4X MEC of EPI, VX-710: VX-710 100 μg/ml; for MIC in the presence of 4X MEC of EPI, VX-853: VX-853 6.25 μg/ml; for MIC in the presence of 4X MEC of EPI, reserpine: reserpine 25 μg/ml; for MIC of EPI: EPI alone; for Fold-reduction in EtBr MIC / MIC of EtBr with EPI: EPIs used at the MEC, except VX-710 at 100 μg/ml
Procedure: 3% sterile laked horse blood (Quad Five, Ryegate, Mont.) was added to assays for E. faecalis and S. Pneumoniae. A final concentration of 1% DMSO was present in all assays. […]
A-106 and C-9 were tested at their respective MECs in combination with a variety of different classes of antibiotics against S. aureus ATCC 29213 (Table 2).

S. pneumoniae ATCC 10015 = experiment: MIC by NCCLS microdilution, EtBr/EPI with and without EPI; settings: Streptococcus pneumoniae, ATCC10015, read-out: MIC of EtBr without EPI
Procedure: as §2
(§6) EtBr is a general substrate for many different efflux pumps in bacteria. Markham et al., “Multiple Novel Inhibitors of the NorA Multidrug Transporter of Staphylococcus aureus”, Antimicrob. Agents Chemother. 43:2404-2408 (1999). Since EtBr is a non-specific DNA intercalator, the only known mechanism of resistance to EtBr is via efflux. Markham et al., “Multiple Novel Inhibitors of the NorA Multidrug Transporter of Staphylococcus aureus”, Antimicrob. Agents Chemother. 43:2404-2408 (1999).

E. faecalis ATCC 29212 = experiment: as above; settings: Enterococcus faecalis, ATCC29212, read-out: MIC of EtBr without EPI
Procedure: as §2, §6

[6] = system: S. aureus SA-1199B (NorA overproducing); experiment: MIC of fluoroquinolones with and without EPI; settings: Staphylococcus aureus
Text: as §1, §2, §3

S. aureus ATCC 29213 [7] = experiment: Minimal effective concentration (MEC) of EPI for EtBr; settings: S. aureus ATCC 29213; lowest amount of EPI which produces the maximum effect on the MIC of ethidium bromide
Procedure: The MEC was determined as the minimal concentration of EPI that produced the maximal reduction in substrate MIC.
The minimum effective concentration (MEC) for inhibition of EtBr efflux was determined in S. aureus, E. faecalis and S. pneumoniae for A-106 and C-9; reserpine was used as a comparator (Table 1).

[8] = read-out: MIC of antibacterial agent, EPI none
[9] = ATCC29213, read-out: MIC of antibacterial agent, EPI none, S. aureus ATCC 29213, no EPI
[10] = ATCC29213, read-out: MIC, No EPI, antibacterial agent alone
[11] = read-out: MIC of Gatifloxacin without EPI

## CCn1cc(C(=O)O)c(=O)c2cc(F)c(N3CCNCC3)cc21 [norfloxacin, reference compound]
[1]; [8]
  MIC: 8 µg/mL
[2]
  MIC: 0.5 µg/mL
S. aureus SA-8325-4
  MIC: 1 µg/mL
[3]; E. faecalis clinical isolate 1
  MIC: 4 µg/mL
[3]; E. faecalis clinical isolate 2
  MIC: 4 µg/mL
[3]; E. faecalis clinical isolate 3
  MIC: 128 µg/mL
[3]; E. faecalis clinical isolate 4
  MIC: 128 µg/mL
[3]; E. faecalis clinical isolate 5
  MIC: 64 µg/mL
[3]; E. faecalis clinical isolate 6
  MIC: 2 µg/mL
[3]; E. faecalis clinical isolate 7
  MIC: 2 µg/mL
[3]; E. faecalis clinical isolate 8
  MIC: 128 µg/mL
[3]; E. faecalis clinical isolate 9
  MIC: 4 µg/mL
[3]; E. faecalis clinical isolate 10
  MIC: 64 µg/mL
[3]; E. faecalis clinical isolate 11
  MIC: 128 µg/mL
[3]; E. faecalis clinical isolate 12
  MIC: 2 µg/mL
[3]; E. faecalis clinical isolate 13
  MIC: 2 µg/mL
[3]; E. faecalis clinical isolate 14
  MIC: 4 µg/mL
[3]; E. faecalis clinical isolate 15
  MIC: 4 µg/mL
[3]; E. faecalis clinical isolate 16
  MIC: 4 µg/mL
[3]; E. faecalis clinical isolate 17
  MIC: 4 µg/mL
[3]; E. faecalis clinical isolate 18
  MIC: 128 µg/mL
[3]; E. faecalis clinical isolate 19
  MIC: 4 µg/mL
[3]; E. faecalis clinical isolate 20
  MIC: 4 µg/mL
[3]; E. faecalis clinical isolate 21
  MIC: 2 µg/mL
[3]; E. faecalis clinical isolate 22
  MIC: 128 µg/mL
[3]; E. faecalis clinical isolate 23
  MIC: 64 µg/mL
[3]; E. faecalis clinical isolate 24
  MIC: > 256 µg/mL
[3]; E. faecalis clinical isolate 25
  MIC: 128 µg/mL
[3]; E. faecalis clinical isolate 26
  MIC: > 256 µg/mL
[4]; S. aureus clinical isolate 1
  MIC: 16 µg/mL
[4]; S. aureus clinical isolate 2
  MIC: 1 µg/mL
[4]; S. aureus clinical isolate 3
  MIC: 1 µg/mL
[4]; S. aureus clinical isolate 4
  MIC: 256 µg/mL
[4]; S. aureus clinical isolate 5
  MIC: 1 µg/mL
[4]; S. aureus clinical isolate 6
  MIC: 32 µg/mL
[4]; S. aureus clinical isolate 7
  MIC: 2 µg/mL
[4]; S. aureus clinical isolate 8
  MIC: 4 µg/mL
[4]; S. aureus clinical isolate 9
  MIC: 1 µg/mL
[4]; S. aureus clinical isolate 10
  MIC: 64 µg/mL
[4]; S. aureus clinical isolate 11
  MIC: 64 µg/mL
[4]; S. aureus clinical isolate 12
  MIC: 1 µg/mL
[4]; S. aureus clinical isolate 13
  MIC: 256 µg/mL
[4]; S. aureus clinical isolate 14
  MIC: 256 µg/mL
[4]; S. aureus clinical isolate 15
  MIC: 256 µg/mL
S. aureus ATCC 29213 [5]; ATCC29213, antibacterial agent alone, read-out: MIC, No EPI
  MIC: 1 µg/mL
S. aureus ATCC 29213 [5]; [9]
  MIC: 0.5 µg/mL
S. aureus ATCC 29213 [5]
  MIC in the presence of 4X MEC of EPI, VX-710: 0.25 µg/mL
  MIC in the presence of 4X MEC of EPI, VX-853: 0.5 µg/mL
  MIC in the presence of 4X MEC of EPI, reserpine: 0.5 µg/mL

## CC[n+]1c(-c2ccccc2)c2cc(N)ccc2c2ccc(N)cc21 [EtBr, Ethidium bromide]
[1]; [8]
  MIC: 12.5 µg/mL
S. pneumoniae ATCC 10015
  MIC: 2 µg/mL
E. faecalis ATCC 29212
  MIC: 6.3 µg/mL
[2]
  MIC: 6.2 µg/mL
S. aureus SA-8325-4
  MIC: 3.1 µg/mL
[6]; [8]
  MIC: 25 µg/mL
S. aureus ATCC 29213 [5]; S. aureus ATCC 29213
  MIC of EtBr without EPI: 6.2 µg/mL
S. aureus ATCC 29213 [5]; ATCC29213, read-out: MIC of EtBr without EPI, S. aureus ATCC 29213
  MIC: 6.3 µg/mL
S. aureus ATCC 29213 [5]; [9]
  MIC: 6.2 µg/mL
S. aureus ATCC 29213 [5]; [10]
  MIC: 6.2 µg/mL
S. aureus ATCC 29213 [5]
  MIC in the presence of 4X MEC of EPI, VX-710: 0.2 µg/mL
  MIC in the presence of 4X MEC of EPI, VX-853: 1.6 µg/mL
  MIC in the presence of 4X MEC of EPI, reserpine: 1.6 µg/mL

## COc1cc(C(=O)C(=O)N(C)C(Cc2ccccc2)C(=O)N(Cc2ccccc2)C(CCc2ccncc2)CCc2ccncc2)cc(OC)c1OC (stereo not shown) [VRT-013661]
S. aureus ATCC 29213 [7]
  MEC of EPI: 3.1 µg/mL
S. aureus ATCC 29213 [5]; S. aureus ATCC 29213
  MIC of EPI: >100 µg/mL
  Fold-reduction in EtBr MIC: 4
  MIC of EtBr with EPI: 1.6 µg/mL

## COc1c(N2CCNC(C)C2)c(F)cc2c(=O)c(C(=O)O)cn(C3CC3)c12 (stereo not shown) [gatifloxacin, reference compound]
[1]; [11]
  MIC: 1 µg/mL
[1]; [8]
  MIC: 1 µg/mL
[2]
  MIC: 0.063 µg/mL
S. aureus SA-8325-4
  MIC: 0.125 µg/mL
[6]; [11]
  MIC: 0.5 µg/mL
[6]; [8]
  MIC: 0.5 µg/mL
S. aureus ATCC 29213 [5]; ATCC29213, read-out: MIC of Gatifloxacin without EPI, S. aureus ATCC 29213 (Table 4)
  MIC: 0.125 µg/mL
S. aureus ATCC 29213 [5]; [9]
  MIC: 0.063 µg/mL
S. aureus ATCC 29213 [5]; [10]
  MIC: 0.125 µg/mL
S. aureus ATCC 29213 [5]
  MIC in the presence of 4X MEC of EPI, VX-710: 0.125 µg/mL
  MIC in the presence of 4X MEC of EPI, VX-853: 0.125 µg/mL
  MIC in the presence of 4X MEC of EPI, reserpine: 0.125 µg/mL

## COc1cc(C(=O)C(=O)N2CCCCC2C(=O)OC(CCCc2ccccc2)CCCc2cccnc2)cc(OC)c1OC (stereo not shown) [VRT-010367]
S. aureus ATCC 29213 [7]
  MEC of EPI: 1.6 µg/mL
S. aureus ATCC 29213 [5]; S. aureus ATCC 29213
  MIC of EPI: >50 µg/mL
  Fold-reduction in EtBr MIC: 2
  MIC of EtBr with EPI: 3.1 µg/mL
